Key:
Assay in all cases: relative viability (nuclei count vs DMSO), 5 days (fraction); higher = more cells survive
Palbociclib + Pictilisib = compound: CC(=O)c1c(C)c2cnc(Nc3ccc(N4CCNCC4)cn3)nc2n(C2CCCC2)c1=O [Palbociclib] + CS(=O)(=O)N1CCN(Cc2cc3nc(-c4cccc5[nH]ncc45)nc(N4CCOCC4)c3s2)CC1 [Pictilisib] (partner 1 µM)
Outline: (§1)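 Relative viability equals treated-well nuclei counts divided by vehicle-well nuclei counts. Counts came from 4× images of lung cancer cell lines grown in 1536-well plates for 5 days after pin-tool dosing on the day after seeding. Dosing used one drug alone or a fixed anchor-drug dose plus five library-drug doses (not always all listed) in √10 steps, and values are medians of duplicate plates.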

Palbociclib + Alpelisib = compound: CC(=O)c1c(C)c2cnc(Nc3ccc(N4CCNCC4)cn3)nc2n(C2CCCC2)c1=O [Palbociclib] + Cc1nc(NC(=O)N2CCC[C@H]2C(N)=O)sc1-c1ccnc(C(C)(C)C(F)(F)F)c1 [Alpelisib] (partner 2 µM)
Outline: as §1

Palbociclib + Dasatinib = compound: CC(=O)c1c(C)c2cnc(Nc3ccc(N4CCNCC4)cn3)nc2n(C2CCCC2)c1=O [Palbociclib] + Cc1nc(Nc2ncc(C(=O)Nc3c(C)cccc3Cl)s2)cc(N2CCN(CCO)CC2)n1 [Dasatinib] (partner 0.075 µM)
Outline: as §1

Palbociclib + AZD7762 = compound: CC(=O)c1c(C)c2cnc(Nc3ccc(N4CCNCC4)cn3)nc2n(C2CCCC2)c1=O [Palbociclib] + NC(=O)Nc1cc(-c2cccc(F)c2)sc1C(=O)N[C@H]1CCCNC1 [AZD7762] (partner 0.2 µM)
Outline: as §1

Cell Line | relative viability (Palbociclib + Pictilisib; first compound 0.01 µM) | relative viability (Palbociclib + Pictilisib; first compound 0.03162 µM) | relative viability (Palbociclib + Pictilisib; first compound 0.1 µM) | relative viability (Palbociclib + Pictilisib; first compound 0.3162 µM) | relative viability (Palbociclib + Pictilisib; first compound 1 µM) | relative viability (Palbociclib + Alpelisib; first compound 0.01 µM) | relative viability (Palbociclib + Alpelisib; first compound 0.03162 µM) | relative viability (Palbociclib + Alpelisib; first compound 0.1 µM) | relative viability (Palbociclib + Alpelisib; first compound 0.3162 µM) | relative viability (Palbociclib + Alpelisib; first compound 1 µM) | relative viability (Palbociclib + Dasatinib; first compound 0.01 µM) | relative viability (Palbociclib + Dasatinib; first compound 0.03162 µM) | relative viability (Palbociclib + Dasatinib; first compound 0.1 µM) | relative viability (Palbociclib + Dasatinib; first compound 0.3162 µM) | relative viability (Palbociclib + Dasatinib; first compound 1 µM) | relative viability (Palbociclib + AZD7762; first compound 0.01 µM) | relative viability (Palbociclib + AZD7762; first compound 0.1 µM) | relative viability (Palbociclib + AZD7762; first compound 0.3162 µM) | relative viability (Palbociclib + AZD7762; first compound 1 µM) | relative viability (Palbociclib + AZD7762; first compound 0.03162 µM)
NCI-H2228 | 0.298 | 0.351 | 0.289 | 0.358 | 0.482 | 0.73 | 0.566 | 0.609 | 0.59 | 0.589 | 0.546 | 0.449 | 0.418 | 0.409 | 0.408 | – | – | – | – | –
NCI-H1299 | 0.762 | 0.486 | 0.541 | 0.347 | 0.259 | 1 | 1.02 | 0.949 | 0.956 | 0.865 | – | – | – | – | – | – | – | – | – | –
NCI-H650 | 1.02 | – | 0.364 | 0.659 | 0.489 | 1.24 | – | 0.79 | 0.775 | 0.624 | 0.516 | 0.328 | 0.355 | 0.398 | 0.289 | 0.949 | 0.978 | 0.921 | 0.686 | –
PC-14 | 0.764 | 0.653 | 0.579 | 0.537 | 0.254 | 1.02 | 0.936 | 0.782 | 0.762 | 0.671 | 0.324 | 0.223 | 0.207 | 0.164 | 0.115 | 0.453 | 0.277 | 0.289 | 0.16 | 0.349
A549 | 0.472 | 0.318 | 0.293 | 0.283 | 0.203 | 0.741 | 0.651 | 0.486 | 0.356 | 0.254 | – | – | – | – | – | – | – | – | – | –
SK-LU-1 | 0.559 | 0.474 | 0.445 | 0.383 | 0.286 | 1.02 | 0.921 | 0.581 | 0.599 | 0.464 | 0.183 | 0.157 | 0.147 | 0.133 | 0.161 | – | – | – | – | –
ChaGo-K-1 | 0.836 | 0.51 | 0.753 | 0.955 | 1.12 | – | – | – | – | – | 0.545 | 0.539 | 0.615 | 0.594 | 0.593 | 0.885 | 0.867 | 0.905 | 0.861 | –
NCI-H661 | 0.407 | 0.409 | 0.379 | 0.3 | 0.251 | 0.92 | 0.686 | 0.583 | 0.382 | 0.508 | 0.901 | 0.793 | 0.476 | 0.533 | 0.435 | – | – | – | – | –
NCI-H522 | – | – | – | – | – | – | – | – | – | – | 0.896 | 0.658 | 0.809 | 0.922 | 0.914 | 1.01 | 0.934 | 0.843 | 0.814 | 0.453
NCI-H2342 | – | – | – | – | – | – | – | – | – | – | 0.324 | 0.302 | 0.306 | 0.301 | 0.314 | 0.457 | 0.414 | 0.409 | 0.399 | 0.467
NCI-H520 | 0.283 | 0.201 | 0.229 | 0.213 | 0.229 | 0.855 | 0.749 | 0.503 | 0.552 | 0.431 | 0.206 | 0.458 | 0.142 | 0.153 | 0.171 | – | – | – | – | –
NCI-H2009 | 0.758 | 0.453 | 0.462 | 0.411 | 0.182 | 1.07 | 1.06 | 0.925 | 0.874 | 0.326 | 0.272 | 0.212 | 0.187 | 0.223 | 0.159 | – | – | – | – | –
NCI-H1650 | 0.548 | 0.223 | 0.383 | 0.414 | 0.312 | – | – | – | – | – | 0.29 | 0.287 | 0.275 | 0.275 | 0.208 | – | – | – | – | –
NCI-H1703 | 0.225 | 0.211 | 0.242 | 0.252 | 0.21 | 0.298 | 0.346 | 0.301 | 0.231 | 0.182 | – | – | – | – | – | 0.12 | 0.109 | 0.0999 | 0.14 | –
COR-L 105 | 0.384 | 0.337 | 0.261 | 0.319 | 0.367 | 0.916 | 0.888 | 0.792 | 0.7 | 0.444 | 0.339 | 0.312 | 0.274 | 0.326 | 0.253 | – | – | – | – | –
Calu-6 | 0.908 | 0.779 | 0.698 | 0.508 | 0.371 | 0.817 | 0.864 | 0.751 | 0.695 | 0.465 | – | – | – | – | – | – | – | – | – | –
HCC-44 | 0.658 | 0.538 | 0.544 | 0.642 | 0.521 | 0.728 | 0.789 | 0.819 | 0.798 | 0.774 | – | – | – | – | – | 1.03 | 0.97 | 0.96 | 1.01 | 0.98
SK-MES-1 | 0.359 | 0.305 | 0.238 | 0.266 | 0.196 | 0.841 | 0.815 | 0.507 | 0.56 | 0.356 | 0.346 | 0.358 | 0.165 | 0.129 | 0.188 | – | – | – | – | –
SW 1573 | 0.447 | 0.389 | 0.322 | 0.327 | 0.289 | 0.676 | 0.744 | 0.571 | 0.57 | 0.49 | 0.495 | 0.321 | 0.354 | 0.394 | 0.277 | – | – | – | – | –
NCI-H2023 | 0.2 | 0.151 | 0.151 | 0.15 | 0.111 | 0.663 | 0.589 | 0.427 | 0.475 | 0.247 | 0.536 | 0.488 | 0.351 | 0.453 | 0.246 | – | – | – | – | –
UMC-11 | 0.873 | 0.671 | 0.429 | 0.36 | 0.219 | 0.996 | 0.931 | 0.604 | 0.459 | 0.254 | 0.491 | 0.395 | 0.346 | 0.328 | 0.232 | – | – | – | – | –
IA-LM | 0.299 | 0.215 | 0.167 | 0.113 | 0.0912 | 0.826 | 0.675 | 0.456 | 0.373 | 0.144 | – | – | – | – | – | – | – | – | – | –
EBC-1 | 0.366 | 0.241 | 0.202 | 0.178 | 0.183 | 0.786 | 0.774 | 0.573 | 0.409 | 0.184 | – | – | – | – | – | – | – | – | – | –

Reference: the supplement of paper PMC10307832
